Experimental data as given in article PMC9481151, “Discovery of new symmetrical and asymmetrical nitrile-containing 1,4-dihydropyridine derivatives as dual kinases and P-glycoprotein inhibitors: synthesis, in vitro assays, and in silico studies” (Journal of Enzyme Inhibition and Medicinal Chemistry, 2022).

Tests used:
Staphylococcus aureus = experiment: Agar well diffusion method
SN12C = experiment: NCI single dose (10 µM) SRB screen; format: cell-based, human; conditions: renal cancer, 48 h
HS578T = experiment: NCI single dose (10 µM) SRB screen; format: cell-based, human; conditions: breast cancer, 48 h
SF-268 = experiment: NCI single dose (10 µM) SRB screen; format: cell-based, human; conditions: CNS cancer, 48 h
HOP-92 = experiment: NCI single dose (10 µM) SRB screen; format: cell-based, human; conditions: non-small cell lung cancer, 48 h
OVCAR-5 = experiment: NCI single dose (10 µM) SRB screen; format: cell-based, human; conditions: ovarian cancer, 48 h
OVCAR-8 = experiment: NCI single dose (10 µM) SRB screen; format: cell-based, human; conditions: ovarian cancer, 48 h
HL-60(TB) = experiment: NCI single dose (10 µM) SRB screen; format: cell-based, human; conditions: leukaemia, 48 h
NCI 60 cancer cell lines = experiment: NCI single dose (10 µM) SRB screen, mean over panel; format: cell-based, human; conditions: mean over 60 cell lines, 48 h
CAKI-1 = experiment: NCI single dose (10 µM) SRB screen; format: cell-based, human; conditions: renal cancer, 48 h
SK-OV-3 = experiment: NCI single dose (10 µM) SRB screen; format: cell-based, human; conditions: ovarian cancer, 48 h
TK-10 = experiment: NCI single dose (10 µM) SRB screen; format: cell-based, human; conditions: renal cancer, 48 h
A498 = experiment: NCI single dose (10 µM) SRB screen; format: cell-based, human; conditions: renal cancer, 48 h
MOLT-4 = experiment: NCI single dose (10 µM) SRB screen; format: cell-based, human; conditions: leukaemia, 48 h
NCI-H23 = experiment: NCI single dose (10 µM) SRB screen; format: cell-based, human; conditions: non-small cell lung cancer, 48 h
RPMI-8226 = experiment: NCI single dose (10 µM) SRB screen; format: cell-based, human; conditions: leukaemia, 48 h
SK-MEL-2 = experiment: NCI single dose (10 µM) SRB screen; format: cell-based, human; conditions: melanoma, 48 h
RXF 393 = experiment: NCI single dose (10 µM) SRB screen; format: cell-based, human; conditions: renal cancer, 48 h
MALME-3M = experiment: NCI single dose (10 µM) SRB screen; format: cell-based, human; conditions: melanoma, 48 h
A549/ATCC = experiment: NCI single dose (10 µM) SRB screen; format: cell-based, human; conditions: non-small cell lung cancer, 48 h
NCI-H460 = experiment: NCI single dose (10 µM) SRB screen; format: cell-based, human; conditions: non-small cell lung cancer, 48 h
K-562 = experiment: NCI single dose (10 µM) SRB screen; format: cell-based, human; conditions: leukaemia, 48 h
HCT-15 = experiment: NCI single dose (10 µM) SRB screen; format: cell-based, human; conditions: colon cancer, 48 h
HCT-116 = experiment: NCI single dose (10 µM) SRB screen; format: cell-based, human; conditions: colon cancer, 48 h
SF-539 = experiment: NCI single dose (10 µM) SRB screen; format: cell-based, human; conditions: CNS cancer, 48 h
MDA-MB-435 = experiment: NCI single dose (10 µM) SRB screen; format: cell-based, human; conditions: melanoma, 48 h
OVCAR-4 = experiment: NCI single dose (10 µM) SRB screen; format: cell-based, human; conditions: ovarian cancer, 48 h
UO-31 = experiment: NCI single dose (10 µM) SRB screen; format: cell-based, human; conditions: renal cancer, 48 h
IGROV1 = experiment: NCI single dose (10 µM) SRB screen; format: cell-based, human; conditions: ovarian cancer, 48 h
HCC-2998 = experiment: NCI single dose (10 µM) SRB screen; format: cell-based, human; conditions: colon cancer, 48 h
M14 = experiment: NCI single dose (10 µM) SRB screen; format: cell-based, human; conditions: melanoma, 48 h
SNB-75 = experiment: NCI single dose (10 µM) SRB screen; format: cell-based, human; conditions: CNS cancer, 48 h
ACHN = experiment: NCI single dose (10 µM) SRB screen; format: cell-based, human; conditions: renal cancer, 48 h
SNB-19 = experiment: NCI single dose (10 µM) SRB screen; format: cell-based, human; conditions: CNS cancer, 48 h
PC-3 = experiment: NCI single dose (10 µM) SRB screen; format: cell-based, human; conditions: prostate cancer, 48 h
NCI/ADR-RES = experiment: NCI single dose (10 µM) SRB screen; format: cell-based, human; conditions: ovarian cancer, 48 h
UACC-257 = experiment: NCI single dose (10 µM) SRB screen; format: cell-based, human; conditions: melanoma, 48 h
Aspergillus flavus = experiment: Agar well diffusion method
BT-549 = experiment: NCI single dose (10 µM) SRB screen; format: cell-based, human; conditions: breast cancer, 48 h
EKVX = experiment: NCI single dose (10 µM) SRB screen; format: cell-based, human; conditions: non-small cell lung cancer, 48 h
786-0 = experiment: NCI single dose (10 µM) SRB screen; format: cell-based, human; conditions: renal cancer, 48 h
COLO 205 = experiment: NCI single dose (10 µM) SRB screen; format: cell-based, human; conditions: colon cancer, 48 h
T-47D = experiment: NCI single dose (10 µM) SRB screen; format: cell-based, human; conditions: breast cancer, 48 h
LOX IMVI = experiment: NCI single dose (10 µM) SRB screen; format: cell-based, human; conditions: melanoma, 48 h
MDA-MB-231 = experiment: NCI single dose (10 µM) SRB screen; format: cell-based, human; conditions: breast cancer, 48 h
MDA-MB-468 = experiment: NCI single dose (10 µM) SRB screen; format: cell-based, human; conditions: breast cancer, 48 h
NCI-H322M = experiment: NCI single dose (10 µM) SRB screen; format: cell-based; conditions: non-small cell lung cancer, 48 h
OVCAR-3 = experiment: NCI single dose (10 µM) SRB screen; format: cell-based, human; conditions: ovarian cancer, 48 h
HT29 = experiment: NCI single dose (10 µM) SRB screen; format: cell-based, human; conditions: colon cancer, 48 h
U251 = experiment: NCI single dose (10 µM) SRB screen; format: cell-based, human; conditions: CNS cancer, 48 h
SF-295 = experiment: NCI single dose (10 µM) SRB screen; format: cell-based, human; conditions: CNS cancer, 48 h
Candida albicans = experiment: Agar well diffusion method
CCRF-CEM = experiment: NCI single dose (10 µM) SRB screen; format: cell-based, human; conditions: leukaemia, 48 h

For `COC(=O)C1=C(C)NC(C)=C(C(=O)OC)C1c1cccc(C#N)c1` [Compound 1a, Dimethyl 4-(3-cyanophenyl)-2,6-dimethyl-1,4-dihydropyridine-3,5-dicarboxylate], the zone of inhibition at 1000 µg/mL (Staphylococcus aureus; Staphylococcus aureus, 24 h, read-out: Diameter of inhibition zone, S. aureus) was 13 mm, the “% activity index, S. aureus” value (Staphylococcus aureus; relative to ciprofloxacin) was 54.2% and the “GI% SN12C” value (SN12C) was “– (Only GI% ≥ 10 are shown)”. For the same molecule, the “GI% HS578T” value (HS578T) was “– (Only GI% ≥ 10 are shown)”, the “GI% SF-268” value (SF-268) was “– (Only GI% ≥ 10 are shown)” and the “GI% HOP-92” value (HOP-92) was “– (Only GI% ≥ 10 are shown)”. The “GI% OVCAR-5” value (OVCAR-5) was “– (Only GI% ≥ 10 are shown)”, the “GI% OVCAR-8” value (OVCAR-8) was “– (Only GI% ≥ 10 are shown)” and the “GI% HL-60(TB)” value (HL-60(TB)) was “– (Only GI% ≥ 10 are shown)”. For the same molecule, the “Mean GI%” value (NCI 60 cancer cell lines) was −4%, the “GI% CAKI-1” value (CAKI-1) was “– (Only GI% ≥ 10 are shown)” and the “GI% SK-OV-3” value (SK-OV-3) was “– (Only GI% ≥ 10 are shown)”. The “GI% TK-10” value (TK-10) was “– (Only GI% ≥ 10 are shown)”, the “GI% A498” value (A498) was “– (Only GI% ≥ 10 are shown)” and the “GI% MOLT-4” value (MOLT-4) was “– (Only GI% ≥ 10 are shown)”. The “GI% NCI-H23” value (NCI-H23) was “– (Only GI% ≥ 10 are shown)”, the “GI% RPMI-8226” value (RPMI-8226) was “– (Only GI% ≥ 10 are shown)” and the “GI% SK-MEL-2” value (SK-MEL-2) was “– (Only GI% ≥ 10 are shown)”. The “GI% RXF 393” value (RXF 393) was “– (Only GI% ≥ 10 are shown)”, the “GI% MALME-3M” value (MALME-3M) was “– (Only GI% ≥ 10 are shown)” and the “GI% A549/ATCC” value (A549/ATCC) was “– (Only GI% ≥ 10 are shown)”. The “GI% NCI-H460” value (NCI-H460) was “– (Only GI% ≥ 10 are shown)”, the “GI% K-562” value (K-562) was “– (Only GI% ≥ 10 are shown)” and the “GI% HCT-15” value (HCT-15) was “– (Only GI% ≥ 10 are shown)”. For the same molecule, the “GI% HCT-116” value (HCT-116) was “– (Only GI% ≥ 10 are shown)”, the “GI% SF-539” value (SF-539) was “– (Only GI% ≥ 10 are shown)” and the “GI% MDA-MB-435” value (MDA-MB-435) was “– (Only GI% ≥ 10 are shown)”. For the same molecule, the “GI% OVCAR-4” value (OVCAR-4) was “– (Only GI% ≥ 10 are shown)”, the “GI% UO-31” value (UO-31) was “– (Only GI% ≥ 10 are shown)” and the “GI% IGROV1” value (IGROV1) was “– (Only GI% ≥ 10 are shown)”. The “GI% HCC-2998” value (HCC-2998) was “– (Only GI% ≥ 10 are shown)”, the “GI% M14” value (M14) was “– (Only GI% ≥ 10 are shown)” and the “GI% SNB-75” value (SNB-75) was 24%. The “GI% ACHN” value (ACHN) was “– (Only GI% ≥ 10 are shown)”, the “GI% SNB-19” value (SNB-19) was “– (Only GI% ≥ 10 are shown)” and the “GI% PC-3” value (PC-3) was “– (Only GI% ≥ 10 are shown)”. The “GI% NCI/ADR-RES” value (NCI/ADR-RES) was “– (Only GI% ≥ 10 are shown)”, the “GI% UACC-257” value (UACC-257) was “– (Only GI% ≥ 10 are shown)” and the zone of inhibition at 1000 µg/mL (Aspergillus flavus; Aspergillus flavus, 24 h, read-out: Diameter of inhibition zone, A. flavus) was 15 mm. The “% activity index, A. flavus” value (Aspergillus flavus; relative to clotrimazole) was 60%, the “GI% BT-549” value (BT-549) was “– (Only GI% ≥ 10 are shown)” and the “GI% EKVX” value (EKVX) was “– (Only GI% ≥ 10 are shown)”. For the same molecule, the “GI% 786-0” value (786-0) was “– (Only GI% ≥ 10 are shown)”, the “GI% COLO 205” value (COLO 205) was “– (Only GI% ≥ 10 are shown)” and the “GI% T-47D” value (T-47D) was “– (Only GI% ≥ 10 are shown)”. For the same molecule, the “GI% LOX IMVI” value (LOX IMVI) was “– (Only GI% ≥ 10 are shown)”, the “GI% MDA-MB-231” value (MDA-MB-231) was “– (Only GI% ≥ 10 are shown)” and the “GI% MDA-MB-468” value (MDA-MB-468) was “– (Only GI% ≥ 10 are shown)”. The “GI% NCI-H322M” value (NCI-H322M) was “– (Only GI% ≥ 10 are shown)”, the “GI% OVCAR-3” value (OVCAR-3) was “– (Only GI% ≥ 10 are shown)” and the “GI% HT29” value (HT29) was “– (Only GI% ≥ 10 are shown)”. For the same molecule, the “GI% U251” value (U251) was “– (Only GI% ≥ 10 are shown)”, the “GI% SF-295” value (SF-295) was “– (Only GI% ≥ 10 are shown)” and the zone of inhibition at 1000 µg/mL (Candida albicans; Candida albicans, 24 h, read-out: Diameter of inhibition zone, C. albicans) was 13 mm. For the same molecule, the “% activity index, C. albicans” value (Candida albicans; relative to clotrimazole) was 48.1% and the “GI% CCRF-CEM” value (CCRF-CEM) was “– (Only GI% ≥ 10 are shown)”.
